Results as given in PMC12670405, “Second-Generation AURKA-Targeting PROTACs: Structural Optimization toward in Vivo Degradation in Neuroblastoma” (Journal of Medicinal Chemistry, 2025).

Experiments:
Test in all cases: KINOMEscan scanMAX
Format in all cases: binding
Settings in all cases: read-out: Percent Control
ACVRL1 = molecular target: T1, ACVRL1 (Homo sapiens, UniProt P37023)
T1 construct: purchased Eurofins Discovery (DiscoverX KINOMEscan scanMAX)
Method: (§1) The kinome-wide binding assay was performed by Eurofins Discovery using the scanMAX screening platform. More information can be found on the Eurofins Discovery Web site.

ALK(L1196M) = molecular target: T2, ALK(L1196M) (Homo sapiens, UniProt Q9UM73, L1196M)
T2 construct: purchased Eurofins Discovery (DiscoverX KINOMEscan scanMAX)
Method: as §1

AURKC = molecular target: T3, AURKC (Homo sapiens, UniProt Q9UQB9)
T3 construct: purchased Eurofins Discovery (DiscoverX KINOMEscan scanMAX)
T3 sequence (Q9UQB9 whole entry): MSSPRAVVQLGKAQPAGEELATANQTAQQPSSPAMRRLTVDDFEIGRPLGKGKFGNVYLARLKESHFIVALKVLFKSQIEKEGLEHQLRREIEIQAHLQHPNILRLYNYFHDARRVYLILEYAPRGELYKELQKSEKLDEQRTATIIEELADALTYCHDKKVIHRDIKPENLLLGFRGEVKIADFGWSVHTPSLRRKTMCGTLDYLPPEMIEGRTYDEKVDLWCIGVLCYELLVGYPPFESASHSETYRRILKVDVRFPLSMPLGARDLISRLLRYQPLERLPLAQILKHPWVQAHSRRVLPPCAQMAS
Method: as §1

BMPR2 = molecular target: T4, BMPR2 (Homo sapiens, UniProt Q13873)
T4 construct: purchased Eurofins Discovery (DiscoverX KINOMEscan scanMAX)
Method: as §1

BTK = molecular target: T5, BTK (Homo sapiens, UniProt Q06187)
T5 construct: purchased Eurofins Discovery (DiscoverX KINOMEscan scanMAX)
Method: as §1

CAMK2B = molecular target: T6, CAMK2B (Homo sapiens, UniProt Q13554)
T6 construct: purchased Eurofins Discovery (DiscoverX KINOMEscan scanMAX)
T6 sequence (Q13554 whole entry): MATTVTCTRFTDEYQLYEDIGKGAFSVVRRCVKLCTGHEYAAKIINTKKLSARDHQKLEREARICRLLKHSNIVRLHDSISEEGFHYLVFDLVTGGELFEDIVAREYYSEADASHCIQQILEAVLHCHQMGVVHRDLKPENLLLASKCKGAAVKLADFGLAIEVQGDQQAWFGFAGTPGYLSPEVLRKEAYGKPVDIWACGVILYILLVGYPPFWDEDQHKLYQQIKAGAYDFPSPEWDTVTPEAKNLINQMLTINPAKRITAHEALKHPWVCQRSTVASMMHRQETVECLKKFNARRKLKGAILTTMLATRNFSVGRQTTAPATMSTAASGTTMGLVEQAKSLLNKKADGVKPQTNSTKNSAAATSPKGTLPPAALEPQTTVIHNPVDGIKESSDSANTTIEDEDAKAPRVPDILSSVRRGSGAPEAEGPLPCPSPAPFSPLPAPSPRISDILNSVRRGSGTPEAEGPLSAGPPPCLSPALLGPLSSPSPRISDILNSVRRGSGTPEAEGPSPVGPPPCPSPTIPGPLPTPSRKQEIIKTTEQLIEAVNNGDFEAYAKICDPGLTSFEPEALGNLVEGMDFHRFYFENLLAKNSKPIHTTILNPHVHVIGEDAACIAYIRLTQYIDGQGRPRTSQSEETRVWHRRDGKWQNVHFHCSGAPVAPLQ
Method: as §1

CDK2 = molecular target: T7, CDK2 (Homo sapiens, UniProt P24941)
T7 construct: purchased Eurofins Discovery (DiscoverX KINOMEscan scanMAX)
Method: as §1

CIT = molecular target: T8, CIT (Homo sapiens, UniProt O14578)
T8 construct: purchased Eurofins Discovery (DiscoverX KINOMEscan scanMAX)
Method: as §1

CSNK1G1 = molecular target: T9, CSNK1G1 (Homo sapiens, UniProt Q9HCP0)
T9 construct: purchased Eurofins Discovery (DiscoverX KINOMEscan scanMAX)
T9 sequence (Q9HCP0 whole entry): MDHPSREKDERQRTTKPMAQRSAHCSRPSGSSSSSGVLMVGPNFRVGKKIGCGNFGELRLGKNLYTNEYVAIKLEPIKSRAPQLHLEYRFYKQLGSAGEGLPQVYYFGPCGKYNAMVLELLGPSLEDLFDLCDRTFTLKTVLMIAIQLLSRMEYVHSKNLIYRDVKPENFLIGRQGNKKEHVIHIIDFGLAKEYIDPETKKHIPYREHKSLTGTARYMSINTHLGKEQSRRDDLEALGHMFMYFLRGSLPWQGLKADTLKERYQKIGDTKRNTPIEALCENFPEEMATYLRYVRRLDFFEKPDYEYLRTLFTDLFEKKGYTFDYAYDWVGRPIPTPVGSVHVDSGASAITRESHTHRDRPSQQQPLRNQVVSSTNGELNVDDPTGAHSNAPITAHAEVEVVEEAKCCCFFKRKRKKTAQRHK
Method: as §1

EGFR(G719S) = molecular target: T10, EGFR(G719S) (Homo sapiens, UniProt P00533, G719S)
T10 construct: purchased Eurofins Discovery (DiscoverX KINOMEscan scanMAX)
Method: as §1

[1] = molecular target: T11, EGFR(L747-S752del, P753S) (Homo sapiens, UniProt P00533, DEL747-752/P753S)
T11 construct: purchased Eurofins Discovery (DiscoverX KINOMEscan scanMAX)
Method: as §1

EPHA2 = molecular target: T12, EPHA2 (Homo sapiens, UniProt P29317)
T12 construct: purchased Eurofins Discovery (DiscoverX KINOMEscan scanMAX)
Method: as §1

FGFR1 = molecular target: T13, FGFR1 (Homo sapiens, UniProt P11362)
T13 construct: purchased Eurofins Discovery (DiscoverX KINOMEscan scanMAX)
Method: as §1

GRK3 = molecular target: T14, GRK3 (Homo sapiens, UniProt P35626)
T14 construct: purchased Eurofins Discovery (DiscoverX KINOMEscan scanMAX)
T14 sequence (P35626 whole entry): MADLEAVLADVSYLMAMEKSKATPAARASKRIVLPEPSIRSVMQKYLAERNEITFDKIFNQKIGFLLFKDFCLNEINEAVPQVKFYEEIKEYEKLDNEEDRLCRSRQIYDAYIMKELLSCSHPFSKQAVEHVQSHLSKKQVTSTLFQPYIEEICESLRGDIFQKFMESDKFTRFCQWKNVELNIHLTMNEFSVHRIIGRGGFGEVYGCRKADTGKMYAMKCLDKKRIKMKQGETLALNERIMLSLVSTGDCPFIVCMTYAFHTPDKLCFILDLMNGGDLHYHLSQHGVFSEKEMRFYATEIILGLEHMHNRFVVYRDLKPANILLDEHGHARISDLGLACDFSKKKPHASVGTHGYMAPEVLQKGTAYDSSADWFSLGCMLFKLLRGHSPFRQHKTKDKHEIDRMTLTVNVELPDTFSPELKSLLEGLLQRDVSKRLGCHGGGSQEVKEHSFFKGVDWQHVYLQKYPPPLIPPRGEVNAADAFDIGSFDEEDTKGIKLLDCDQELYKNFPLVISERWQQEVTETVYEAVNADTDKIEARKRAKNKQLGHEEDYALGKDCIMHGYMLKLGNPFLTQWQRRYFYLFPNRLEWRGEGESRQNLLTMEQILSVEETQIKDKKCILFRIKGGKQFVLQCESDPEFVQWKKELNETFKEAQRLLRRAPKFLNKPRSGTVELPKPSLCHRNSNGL
Method: as §1

INSRR = molecular target: T15, INSRR (Homo sapiens, UniProt P14616)
T15 construct: purchased Eurofins Discovery (DiscoverX KINOMEscan scanMAX)
Method: as §1

KIT(D816V) = molecular target: T16, KIT(D816V) (Homo sapiens, UniProt P10721, D816V)
T16 construct: purchased Eurofins Discovery (DiscoverX KINOMEscan scanMAX)
Method: as §1

LZK = molecular target: T17, LZK (Homo sapiens, UniProt O43283)
T17 construct: purchased Eurofins Discovery (DiscoverX KINOMEscan scanMAX)
Method: as §1

MAK = molecular target: T18, MAK (Homo sapiens, UniProt P20794)
T18 construct: purchased Eurofins Discovery (DiscoverX KINOMEscan scanMAX)
Method: as §1

MEK2 = molecular target: T19, MEK2 (Homo sapiens, UniProt P36507)
T19 construct: purchased Eurofins Discovery (DiscoverX KINOMEscan scanMAX)
Method: as §1

MET(M1250T) = molecular target: T20, MET(M1250T) (Homo sapiens, UniProt P08581, M1250T)
T20 construct: purchased Eurofins Discovery (DiscoverX KINOMEscan scanMAX)
T20 sequence (P08581 25-1390 M1250T): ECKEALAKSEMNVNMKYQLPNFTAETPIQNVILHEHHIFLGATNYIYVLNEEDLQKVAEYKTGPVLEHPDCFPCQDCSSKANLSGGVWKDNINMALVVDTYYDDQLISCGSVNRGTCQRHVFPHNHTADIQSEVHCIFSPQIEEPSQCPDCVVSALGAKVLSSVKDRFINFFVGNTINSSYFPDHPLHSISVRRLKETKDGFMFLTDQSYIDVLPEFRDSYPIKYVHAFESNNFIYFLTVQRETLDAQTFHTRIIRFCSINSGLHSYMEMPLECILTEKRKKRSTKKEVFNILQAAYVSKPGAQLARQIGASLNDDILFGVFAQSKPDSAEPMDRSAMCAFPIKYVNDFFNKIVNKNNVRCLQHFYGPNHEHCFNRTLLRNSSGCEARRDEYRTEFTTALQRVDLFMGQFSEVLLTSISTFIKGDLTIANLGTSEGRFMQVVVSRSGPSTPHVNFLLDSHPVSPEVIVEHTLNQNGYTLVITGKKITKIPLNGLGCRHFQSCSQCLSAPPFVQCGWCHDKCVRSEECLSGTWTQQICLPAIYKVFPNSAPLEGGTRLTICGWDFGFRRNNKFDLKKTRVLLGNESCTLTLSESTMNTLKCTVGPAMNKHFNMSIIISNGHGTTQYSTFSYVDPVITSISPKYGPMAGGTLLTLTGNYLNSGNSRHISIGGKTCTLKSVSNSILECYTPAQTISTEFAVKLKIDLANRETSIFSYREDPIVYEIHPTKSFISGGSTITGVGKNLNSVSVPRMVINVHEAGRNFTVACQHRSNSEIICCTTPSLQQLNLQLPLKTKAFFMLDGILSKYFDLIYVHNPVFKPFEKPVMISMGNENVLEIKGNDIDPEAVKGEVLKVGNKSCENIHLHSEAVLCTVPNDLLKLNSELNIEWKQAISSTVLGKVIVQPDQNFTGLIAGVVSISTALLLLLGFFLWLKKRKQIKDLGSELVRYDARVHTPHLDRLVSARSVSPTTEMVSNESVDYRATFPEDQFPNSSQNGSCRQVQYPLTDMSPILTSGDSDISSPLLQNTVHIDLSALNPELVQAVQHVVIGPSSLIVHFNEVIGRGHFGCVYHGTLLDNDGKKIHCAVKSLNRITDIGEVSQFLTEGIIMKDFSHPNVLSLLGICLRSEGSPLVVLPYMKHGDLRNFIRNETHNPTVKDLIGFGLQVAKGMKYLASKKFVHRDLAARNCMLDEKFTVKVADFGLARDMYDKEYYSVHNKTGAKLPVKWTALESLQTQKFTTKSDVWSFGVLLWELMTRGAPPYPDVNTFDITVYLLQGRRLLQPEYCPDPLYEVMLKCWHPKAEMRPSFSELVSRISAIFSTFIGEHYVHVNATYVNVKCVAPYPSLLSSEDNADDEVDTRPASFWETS
Method: as §1

MYLK4 = molecular target: T21, MYLK4 (Homo sapiens, UniProt Q86YV6)
T21 construct: purchased Eurofins Discovery (DiscoverX KINOMEscan scanMAX)
Method: as §1

NEK10 = molecular target: T22, NEK10 (Homo sapiens, UniProt Q6ZWH5)
T22 construct: purchased Eurofins Discovery (DiscoverX KINOMEscan scanMAX)
Method: as §1

PAK3 = molecular target: T23, PAK3 (Homo sapiens, UniProt O75914)
T23 construct: purchased Eurofins Discovery (DiscoverX KINOMEscan scanMAX)
Method: as §1

PIK3CA(H1047Y) = molecular target: T24, PIK3CA(H1047Y) (Homo sapiens, UniProt P42336, H1047Y)
T24 construct: purchased Eurofins Discovery (DiscoverX KINOMEscan scanMAX)
Method: as §1

PIP5K2B = molecular target: T25, PIP5K2B (Homo sapiens, UniProt P78356)
T25 construct: purchased Eurofins Discovery (DiscoverX KINOMEscan scanMAX)
Method: as §1

PKNB(M.tuberculosis) = molecular target: T26, PKNB(M.tuberculosis) (Mycobacterium tuberculosis, UniProt P9WI81)
T26 construct: purchased Eurofins Discovery (DiscoverX KINOMEscan scanMAX)
Method: as §1

PLK1 = molecular target: T27, PLK1 (Homo sapiens, UniProt P53350)
T27 construct: purchased Eurofins Discovery (DiscoverX KINOMEscan scanMAX)
Method: as §1

PRKCH = molecular target: T28, PRKCH (Homo sapiens, UniProt P24723)
T28 construct: purchased Eurofins Discovery (DiscoverX KINOMEscan scanMAX)
T28 sequence (P24723 whole entry): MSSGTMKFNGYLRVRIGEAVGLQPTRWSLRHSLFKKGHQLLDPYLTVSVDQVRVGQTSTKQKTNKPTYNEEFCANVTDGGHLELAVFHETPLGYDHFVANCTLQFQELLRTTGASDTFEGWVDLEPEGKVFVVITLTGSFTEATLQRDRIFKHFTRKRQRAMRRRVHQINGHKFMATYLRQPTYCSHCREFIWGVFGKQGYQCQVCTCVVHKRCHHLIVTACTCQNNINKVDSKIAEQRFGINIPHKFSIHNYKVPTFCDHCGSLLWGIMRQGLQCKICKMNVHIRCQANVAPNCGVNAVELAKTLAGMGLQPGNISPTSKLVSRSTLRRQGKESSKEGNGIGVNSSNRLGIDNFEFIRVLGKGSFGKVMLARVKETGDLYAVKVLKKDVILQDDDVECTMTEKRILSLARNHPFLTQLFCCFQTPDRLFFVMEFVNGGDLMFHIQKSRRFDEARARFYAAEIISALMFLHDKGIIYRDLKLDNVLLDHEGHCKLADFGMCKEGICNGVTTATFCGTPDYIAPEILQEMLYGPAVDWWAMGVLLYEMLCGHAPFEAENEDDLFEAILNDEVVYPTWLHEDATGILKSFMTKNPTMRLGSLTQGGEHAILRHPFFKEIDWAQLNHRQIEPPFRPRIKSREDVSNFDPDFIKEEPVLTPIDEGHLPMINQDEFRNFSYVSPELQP
Method: as §1

STK35 = molecular target: T29, STK35 (Homo sapiens, UniProt Q8TDR2)
T29 construct: purchased Eurofins Discovery (DiscoverX KINOMEscan scanMAX)
Method: as §1

TEC = molecular target: T30, TEC (Homo sapiens, UniProt P42680)
T30 construct: purchased Eurofins Discovery (DiscoverX KINOMEscan scanMAX)
Method: as §1

ULK3 = molecular target: T31, ULK3 (Homo sapiens, UniProt Q6PHR2)
T31 construct: purchased Eurofins Discovery (DiscoverX KINOMEscan scanMAX)
Method: as §1

WEE2 = molecular target: T32, WEE2 (Homo sapiens, UniProt P0C1S8)
T32 construct: purchased Eurofins Discovery (DiscoverX KINOMEscan scanMAX)
Method: as §1

YANK1 = molecular target: T33, YANK1 (Homo sapiens, UniProt Q8WU08)
T33 construct: purchased Eurofins Discovery (DiscoverX KINOMEscan scanMAX)
Method: as §1

p38-beta = molecular target: T34, p38-beta (Homo sapiens, UniProt Q15759)
T34 construct: purchased Eurofins Discovery (DiscoverX KINOMEscan scanMAX)
T34 sequence (Q15759 whole entry): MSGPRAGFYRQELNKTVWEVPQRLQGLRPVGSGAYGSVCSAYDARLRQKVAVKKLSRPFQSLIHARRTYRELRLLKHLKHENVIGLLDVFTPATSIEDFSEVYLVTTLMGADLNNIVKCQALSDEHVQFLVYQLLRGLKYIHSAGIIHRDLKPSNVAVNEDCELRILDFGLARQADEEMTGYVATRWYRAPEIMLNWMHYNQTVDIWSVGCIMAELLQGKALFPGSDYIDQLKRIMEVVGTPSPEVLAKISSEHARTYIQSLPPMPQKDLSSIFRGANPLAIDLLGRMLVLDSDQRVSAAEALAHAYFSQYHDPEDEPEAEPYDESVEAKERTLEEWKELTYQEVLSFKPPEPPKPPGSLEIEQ
Method: as §1

T1 sequence (P37023 22-503): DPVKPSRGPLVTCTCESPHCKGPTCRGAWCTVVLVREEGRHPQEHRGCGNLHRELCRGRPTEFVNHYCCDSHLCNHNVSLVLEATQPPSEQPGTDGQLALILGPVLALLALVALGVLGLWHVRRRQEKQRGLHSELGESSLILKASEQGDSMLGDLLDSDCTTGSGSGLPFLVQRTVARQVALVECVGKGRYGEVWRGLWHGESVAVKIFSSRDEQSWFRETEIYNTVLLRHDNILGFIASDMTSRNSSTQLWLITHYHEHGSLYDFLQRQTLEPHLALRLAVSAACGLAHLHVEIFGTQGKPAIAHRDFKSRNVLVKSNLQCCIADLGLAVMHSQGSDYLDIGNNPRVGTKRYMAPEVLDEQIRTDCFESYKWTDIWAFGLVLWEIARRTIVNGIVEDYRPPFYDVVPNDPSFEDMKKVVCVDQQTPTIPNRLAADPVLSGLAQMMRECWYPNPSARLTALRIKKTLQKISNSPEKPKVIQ

Cc1cc(Nc2ccc(F)c(CC3(C(=O)N4CCC(F)(CN5CCN(c6ccc(N7CCC(=O)NC7=O)cn6)CC5)CC4)CCN(Cc4cccc(Cl)c4F)CC3)n2)n[nH]1 [SK5527]
remaining binding at 0.1 µM (ACVRL1; 100 nM): 100%
remaining binding at 1 µM (ACVRL1; 1000 nM): 100%
remaining binding at 0.1 µM (ALK(L1196M); 100 nM): 91%
remaining binding at 1 µM (ALK(L1196M); 1000 nM): 100%
remaining binding at 0.1 µM (AURKC; 100 nM): 100%
remaining binding at 1 µM (AURKC; 1000 nM): 85%
remaining binding at 0.1 µM (BMPR2; 100 nM): 98%
remaining binding at 1 µM (BMPR2; 1000 nM): 50%
remaining binding at 0.1 µM (BTK; 100 nM): 88%
remaining binding at 1 µM (BTK; 1000 nM): 80%
remaining binding at 0.1 µM (CAMK2B; 100 nM): 100%
remaining binding at 1 µM (CAMK2B; 1000 nM): 100%
remaining binding at 0.1 µM (CDK2; 100 nM): 100%
remaining binding at 1 µM (CDK2; 1000 nM): 94%
remaining binding at 0.1 µM (CIT; 100 nM): 100%
remaining binding at 1 µM (CIT; 1000 nM): 100%
remaining binding at 0.1 µM (CSNK1G1; 100 nM): 100%
remaining binding at 1 µM (CSNK1G1; 1000 nM): 98%
remaining binding at 0.1 µM (EGFR(G719S); 100 nM): 94%
remaining binding at 1 µM (EGFR(G719S); 1000 nM): 100%
remaining binding at 0.1 µM ([1]; 100 nM): 81%
remaining binding at 1 µM ([1]; 1000 nM): 65%
remaining binding at 0.1 µM (EPHA2; 100 nM): 100%
remaining binding at 1 µM (EPHA2; 1000 nM): 100%
remaining binding at 0.1 µM (FGFR1; 100 nM): 100%
remaining binding at 1 µM (FGFR1; 1000 nM): 92%
remaining binding at 0.1 µM (GRK3; 100 nM): 100%
remaining binding at 1 µM (GRK3; 1000 nM): 100%
remaining binding at 0.1 µM (INSRR; 100 nM): 97%
remaining binding at 1 µM (INSRR; 1000 nM): 90%
remaining binding at 0.1 µM (KIT(D816V); 100 nM): 93%
remaining binding at 1 µM (KIT(D816V); 1000 nM): 97%
remaining binding at 0.1 µM (LZK; 100 nM): 92%
remaining binding at 1 µM (LZK; 1000 nM): 90%
remaining binding at 0.1 µM (MAK; 100 nM): 100%
remaining binding at 1 µM (MAK; 1000 nM): 100%
remaining binding at 0.1 µM (MEK2; 100 nM): 80%
remaining binding at 1 µM (MEK2; 1000 nM): 81%
remaining binding at 0.1 µM (MET(M1250T); 100 nM): 85%
remaining binding at 1 µM (MET(M1250T); 1000 nM): 80%
remaining binding at 0.1 µM (MYLK4; 100 nM): 100%
remaining binding at 1 µM (MYLK4; 1000 nM): 100%
remaining binding at 0.1 µM (NEK10; 100 nM): 100%
remaining binding at 1 µM (NEK10; 1000 nM): 100%
remaining binding at 0.1 µM (PAK3; 100 nM): 100%
remaining binding at 1 µM (PAK3; 1000 nM): 100%
remaining binding at 0.1 µM (PIK3CA(H1047Y); 100 nM): 95%
remaining binding at 1 µM (PIK3CA(H1047Y); 1000 nM): 100%
remaining binding at 0.1 µM (PIP5K2B; 100 nM): 100%
remaining binding at 1 µM (PIP5K2B; 1000 nM): 100%
remaining binding at 0.1 µM (PKNB(M.tuberculosis); 100 nM): 93%
remaining binding at 1 µM (PKNB(M.tuberculosis); 1000 nM): 94%
remaining binding at 0.1 µM (PLK1; 100 nM): 58%
remaining binding at 1 µM (PLK1; 1000 nM): 82%
remaining binding at 0.1 µM (PRKCH; 100 nM): 96%
remaining binding at 1 µM (PRKCH; 1000 nM): 100%
remaining binding at 0.1 µM (STK35; 100 nM): 99%
remaining binding at 1 µM (STK35; 1000 nM): 80%
remaining binding at 0.1 µM (TEC; 100 nM): 91%
remaining binding at 1 µM (TEC; 1000 nM): 69%
remaining binding at 0.1 µM (ULK3; 100 nM): 85%
remaining binding at 1 µM (ULK3; 1000 nM): 86%
remaining binding at 0.1 µM (WEE2; 100 nM): 79%
remaining binding at 1 µM (WEE2; 1000 nM): 88%
remaining binding at 0.1 µM (YANK1; 100 nM): 100%
remaining binding at 1 µM (YANK1; 1000 nM): 77%
remaining binding at 0.1 µM (p38-beta; 100 nM): 100%
remaining binding at 1 µM (p38-beta; 1000 nM): 99%
